≈ marks a conversion by molar mass, not a printed value. Read-outs that look alike come from different tables or passages of the source.
Tests used:
[1] = system: carbapenemase producing K. pneumoniae; test: MIC by broth micro-dilution (CLSI), carbapenemase producing K. pneumoniae; type: cell-based, Klebsiella pneumoniae; conditions: Klebsiella pneumoniae, ATCCBAA1705, KPC-2 K. pneumoniae ATCC BAA-1705; read-out: MIC
[2] = system: carbapenem sensitive Escherichia coli; test: MIC by broth micro-dilution (CLSI), carbapenem sensitive E. coli; type: cell-based; conditions: Escherichia coli, ATCC25922, ESBL −ve E. coli ATCC25922; read-out: MIC
[3] = system: methicillin-sensitive Staphylococcus aureus; test: MIC by broth micro-dilution (CLSI), methicillin-sensitive S. aureus; type: cell-based; conditions: Staphylococcus aureus, MSSA S. aureus ATCC29213, read-out: MIC
[4] = system: carbapenem sensitive Pseudomonas aeruginosa; test: MIC by broth micro-dilution (CLSI), carbapenem sensitive P. aeruginosa; type: cell-based; conditions: Pseudomonas aeruginosa, ATCC27853, Meropenem susceptible P. aeruginosa ATCC27853; read-out: MIC

SMILES	MIC [1]	MIC [2]	MIC ([3]; ATCC 29213 / MSSA)	MIC [4]	MIC ([3]; ATCC29213|MSSA)
C[C@@H](NC(=O)Cn1cnnn1)[C@H]1C(=O)N2C(C(=O)O)=C(S[C@@H]3CN[C@H](C(=O)N4CC5CNCC5C4)C3)[C@H](C)[C@H]12 (stereo partly drawn) [Example 540, (4R,5S,6R)-6-((R)-1-(2-(1H-tetrazol-1-yl)acetamido)ethyl)-4-methyl-3-((3S,5S)-5-(octahydropyrrolo-[3,4-c]pyrrole-2-carbonyl)pyrrolidin-3-ylthio)-7-oxo-1-azabicyclo[3.2.0]hept-2-ene-2-carboxylic acid]	2 µg/mL (≈ 3.57 µM)	0.25 µg/mL (≈ 0.447 µM)	4 µg/mL (≈ 7.15 µM)	1 µg/mL (≈ 1.79 µM)	–
C[C@@H](NC(=O)Cn1cnnn1)[C@H]1C(=O)N2C(C(=O)O)=C(S[C@@H]3CN[C@H](C(=O)N4CC5C[C@H]6C[C@@]5(CN6)C4)C3)[C@H](C)[C@H]12 (stereo partly drawn) [Example 541, (4R,5S,6R)-6-((R)-1-(2-(1H-tetrazol-1-yl)acetamido)ethyl)-3-((3S,5S)-5-((1R,7S)-3,8-Diaza-tricyclo[5.2.1.01,5]decane-3-carbonyl)pyrrolidin-3-ylthio)-4-methyl-7-oxo-1-azabicyclo[3.2.0]hept-2-ene-2-carboxylic acid]	1 µg/mL (≈ 1.71 µM)	0.25 µg/mL (≈ 0.427 µM)	2 µg/mL (≈ 3.41 µM)	1 µg/mL (≈ 1.71 µM)	–
C[C@@H](NC(=O)Cn1cnnn1)[C@H]1C(=O)N2C(C(=O)O)=C(S[C@@H]3CN[C@H](C(=O)N4CC5CC(N)CC5C4)C3)[C@H](C)[C@H]12 (stereo partly drawn) [Example 543, (4R,5S,6R)-6-((R)-1-(2-(1H-tetrazol-1-yl)acetamido)ethyl)-3-((3S,5S)-5-(5-aminooctahydrocyclopenta[c]pyrrole-2-carbonyl)pyrrolidin-3-ylthio)-4-methyl-7-oxo-1-azabicyclo[3.2.0]hept-2-ene-2-carboxylic acid]	1 µg/mL (≈ 1.74 µM)	0.5 µg/mL (≈ 0.872 µM)	2 µg/mL (≈ 3.49 µM)	2 µg/mL (≈ 3.49 µM)	–
C[C@@H](NC(=O)Cn1cnnn1)[C@H]1C(=O)N2C(C(=O)O)=C(S[C@@H]3CN[C@H](C(=O)N4C[C@@H](O)[C@H](NC(=N)N)C4)C3)[C@H](C)[C@H]12 [Example 544, (4R,5S,6R)-6-((R)-1-(2-(1H-tetrazol-1-yl)acetamido)ethyl)-3-((3S,5S)-5-((3R,4R)-3-guanidino-4-hydroxypyrrolidine-1-carbonyl)pyrrolidin-3-ylthio)-4-methyl-7-oxo-1-azabicyclo[3.2.0]hept-2-ene-2-carboxylic acid]	0.5 µg/mL (≈ 0.845 µM)	0.25 µg/mL (≈ 0.423 µM)	1 µg/mL (≈ 1.69 µM)	1 µg/mL (≈ 1.69 µM)	–
C[C@@H](NC(=O)Cn1cnnn1)[C@H]1C(=O)N2C(C(=O)O)=C(S[C@@H]3CN[C@H](C(=N)N4CC[C@@H](N)C4)C3)[C@H](C)[C@H]12 [Example 550]	2 µg/mL (≈ 3.75 µM)	0.25 µg/mL (≈ 0.469 µM)	–	8 µg/mL (≈ 15 µM)	1 µg/mL (≈ 1.88 µM)

Second part, the molecule after the results:

MIC [1]	MIC [2]	MIC ([3]; ATCC 29213 / MSSA)	MIC [4]	MIC ([3]; ATCC29213|MSSA)	SMILES
2 µg/mL (≈ 3.32 µM)	0.25 µg/mL (≈ 0.415 µM)	4 µg/mL (≈ 6.64 µM)	1 µg/mL (≈ 1.66 µM)	–	C[C@@H](NC(=O)Cn1cnnn1)[C@H]1C(=O)N2C(C(=O)O)=C(S[C@@H]3CN[C@H](C(=O)N4C[C@H]5C[C@H](N)C[C@@]5(CN)C4)C3)[C@H](C)[C@H]12 [Example 538, (4R,5S,6R)-6-((R)-1-(2-(1H-tetrazol-1-yl)acetamido)ethyl)-3-((3S,5S)-5-((3aR,5S,6aS)-5-amino-3a-(aminomethyl)octahydro-cyclopenta[c]pyrrole-2-carbonyl)pyrrolidin-3-ylthio)-4-methyl-7-oxo-1-azabicyclo[3.2.0]hept-2-ene-2-carboxylic acid]
0.5 µg/mL (≈ 0.845 µM)	0.125 µg/mL (≈ 0.211 µM)	1 µg/mL (≈ 1.69 µM)	1 µg/mL (≈ 1.69 µM)	–	C[C@@H](NC(=O)Cn1cnnn1)[C@H]1C(=O)N2C(C(=O)O)=C(S[C@@H]3CN[C@H](C(=O)N4C[C@H](O)[C@H](NC(=N)N)C4)C3)[C@H](C)[C@H]12 [Example 545, (4R,5S,6R)-6-((R)-1-(2-(1H-tetrazol-1-yl)acetamido)ethyl)-3-((3S,5S)-5-((3R,4S)-3-guanidino-4-hydroxypyrrolidine-1-carbonyl)pyrrolidin-3-ylthio)-4-methyl-7-oxo-1-azabicyclo[3.2.0)hept-2-ene-2-carboxylic acid]
1 µg/mL (≈ 1.69 µM)	0.25 µg/mL (≈ 0.423 µM)	1 µg/mL (≈ 1.69 µM)	2 µg/mL (≈ 3.38 µM)	–	C[C@@H](NC(=O)Cn1cnnn1)[C@H]1C(=O)N2C(C(=O)O)=C(S[C@@H]3CN[C@H](C(=O)N4C[C@@H](O)[C@@H](NC(=N)N)C4)C3)[C@H](C)[C@H]12 [Example 546, (4R,5S,6R)-6-((R)-1-(2-(1H-tetrazol-1-yl)acetamido)ethyl)-3-((3S,5S)-5-((3S,4R)-3-guanidino-4-hydroxypyrrolidine-1-carbonyl)pyrrolidin-3-ylthio)-4-methyl-7-oxo-1-azabicyclo[3.2.0]hept-2-ene-2-carboxylic acid]
2 µg/mL (≈ 3.23 µM)	0.5 µg/mL (≈ 0.807 µM)	4 µg/mL (≈ 6.45 µM)	2 µg/mL (≈ 3.23 µM)	–	C[C@@H](NC(=O)Cn1cnnn1)[C@H]1C(=O)N2C(C(=O)O)=C(S[C@@H]3CN[C@H](C(=O)N4CC5[C@H](O)[C@H](N)C[C@@]5(CO)C4)C3)[C@H](C)[C@H]12 (stereo partly drawn) [Example 547, (4R,5S,6R)-6-((R)-1-(2-(1H-tetrazol-1-yl)acetamido)ethyl)-3-((3S,5S)-5-((3aS,5R,6S)-5-amino-6-hydroxy-3a-(hydroxymethyl)octahydro-cyclopenta[c]pyrrole-2-carbonyl)pyrrolidin-3-ylthio)-4-methyl-7-oxo-1-azabicyclo-[3.2.0]-hept-2-ene-2-carboxylic acid]
1 µg/mL (≈ 1.73 µM)	0.25 µg/mL (≈ 0.431 µM)	8 µg/mL (≈ 13.8 µM)	4 µg/mL (≈ 6.9 µM)	–	C[C@@H](NC(=O)Cn1cnnn1)[C@H]1C(=O)N2C(C(=O)O)=C(S[C@@H]3CN[C@H](C(=O)N4C[C@@H](O)[C@H](N)[C@H]4CO)C3)[C@H](C)[C@H]12 [Example 548, (4R,5S,6R)-6-((R)-1-(2-(1H-tetrazol-1-yl)acetamido)ethyl)-3-((3S,5S)-5-((2S,3R,4R)-3-amino-4-hydroxy-2-(hydroxymethyl)pyrrolidine-1-carbonyl)pyrrolidin-3-ylthio)-4-methyl-7-oxo-1-azabicyclo[3.2.0]hept-2-ene-2-carboxylic acid]
1 µg/mL (≈ 1.73 µM)	0.125 µg/mL (≈ 0.216 µM)	4 µg/mL (≈ 6.9 µM)	1 µg/mL (≈ 1.73 µM)	–	C[C@@H](NC(=O)Cn1cnnn1)[C@H]1C(=O)N2C(C(=O)O)=C(S[C@@H]3CN[C@H](C(=O)N4C[C@H](N)[C@@H](O)[C@H]4CO)C3)[C@H](C)[C@H]12 [Example 549, (4R,5S,6R)-6-((R)-1-(2-(1H-tetrazol-1-yl)acetamido)ethyl)-3-((3S,5S)-5-((2R,3R,4S)-4-amino-3-hydroxy-2-(hydroxymethyl)pyrrolidine-1-carbonyl)pyrrolidin-3-ylthio)-4-methyl-7-oxo-1-azabicyclo[3.2.0]hept-2-ene-2-carboxylic acid]
1 µg/mL (≈ 1.77 µM)	0.25 µg/mL (≈ 0.444 µM)	2 µg/mL (≈ 3.55 µM)	2 µg/mL (≈ 3.55 µM)	–	C[C@@H](NC(=O)Cn1cnnn1)[C@H]1C(=O)N2C(C(=O)O)=C(S[C@@H]3CN[C@H](C(=O)N4CC[C@@H](N)[C@H](O)C4)C3)[C@H](C)[C@H]12 [Example 553, (4R,5S,6R)-6-((R)-1-(2-(1H-tetrazol-1-yl)acetamido)ethyl)-3-((3S,5S)-5-((3R,4R)-4-amino-3-hydroxypiperidine-1-carbonyl)pyrrolidin-3-ylthio)-4-methyl-7-oxo-1-azabicyclo[3.2.0]hept-2-ene-2-carboxylic acid]

— patent publication US11180504B2 (ORCHID PHARMA LTD., priority 2016, dated 2021)
